According to ChEMBL document CHEMBL1821627, “Medicinal chemistry as a conduit for the modulation of quorum sensing” (J Med Chem, 2010):
Each block holds one molecule with its values, some of them ahead of it. Where a SMILES comes first, the peptide text is derived from it. Bridges are numbered along the chain shown (N, C = ends).

Legend:
[1] = molecular target: T1, Transcriptional activator protein LasR (Pseudomonas aeruginosa (strain ATCC 15692 / PAO1 / 1C / PRS 101 / LMG12228), UniProt P25084); test: Agonist activity at Pseudomonas aeruginosa LasR cognate receptor expressed in Escherichia coli harboring pKDT17 assessed as activation of lasB expression by LacZ reporter gene assay; format: functional
T1 sequence (P25084 whole entry): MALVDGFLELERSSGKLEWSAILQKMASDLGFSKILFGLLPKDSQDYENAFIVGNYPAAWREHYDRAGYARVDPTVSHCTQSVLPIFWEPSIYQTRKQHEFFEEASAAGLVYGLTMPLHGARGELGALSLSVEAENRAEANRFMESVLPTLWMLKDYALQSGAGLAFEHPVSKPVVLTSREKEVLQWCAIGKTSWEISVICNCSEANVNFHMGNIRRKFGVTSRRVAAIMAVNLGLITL

[2] = molecular target: T1, Transcriptional activator protein LasR; test: Agonist activity at Pseudomonas aeruginosa LasR receptor expressed in Escherichia coli in absence of natural autoinducer; format: functional
[3] = molecular target: T2, Autoinducer 1 sensor kinase/phosphatase LuxN (Vibrio harveyi, UniProt P0C5S6); test: Inhibition of LuxN-dependent bioluminescence in Vibrio harveyi
T2 sequence (P0C5S6 whole entry): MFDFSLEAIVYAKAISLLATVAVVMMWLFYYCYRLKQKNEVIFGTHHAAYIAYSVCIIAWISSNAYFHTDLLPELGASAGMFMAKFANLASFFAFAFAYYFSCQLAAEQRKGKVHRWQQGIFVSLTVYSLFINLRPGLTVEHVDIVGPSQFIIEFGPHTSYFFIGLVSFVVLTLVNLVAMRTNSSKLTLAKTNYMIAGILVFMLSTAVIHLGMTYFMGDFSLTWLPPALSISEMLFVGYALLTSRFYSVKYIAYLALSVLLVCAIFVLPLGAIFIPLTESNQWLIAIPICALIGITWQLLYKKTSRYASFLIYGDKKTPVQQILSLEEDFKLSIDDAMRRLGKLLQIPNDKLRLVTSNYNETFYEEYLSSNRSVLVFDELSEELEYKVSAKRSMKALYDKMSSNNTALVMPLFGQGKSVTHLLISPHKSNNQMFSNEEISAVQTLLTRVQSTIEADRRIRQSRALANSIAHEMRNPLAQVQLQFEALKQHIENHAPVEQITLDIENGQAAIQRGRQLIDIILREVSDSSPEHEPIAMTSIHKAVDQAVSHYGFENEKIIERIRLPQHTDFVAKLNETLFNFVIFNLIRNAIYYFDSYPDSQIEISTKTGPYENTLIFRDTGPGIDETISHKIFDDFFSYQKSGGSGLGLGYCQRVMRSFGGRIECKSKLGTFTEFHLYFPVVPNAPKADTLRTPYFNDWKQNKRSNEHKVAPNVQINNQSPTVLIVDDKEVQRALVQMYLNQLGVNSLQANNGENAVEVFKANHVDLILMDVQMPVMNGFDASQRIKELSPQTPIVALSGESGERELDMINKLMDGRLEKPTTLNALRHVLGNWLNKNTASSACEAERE

[4] = molecular target: T1, Transcriptional activator protein LasR; test: Antagonist activity at Pseudomonas aeruginosa LasR receptor expressed in Escherichia coli in presence of 7.5 nM natural auto-inducer 3-oxo-C12-HSL; format: functional
[5] = Inhibition of autoinducer-stimulated quorum sensing regulated bioluminescence in Vibrio fischeri by luminescence assay; set-up: species or system Aliivibrio fischeri
[6] = molecular target: T1, Transcriptional activator protein LasR; test: Antagonist activity at Pseudomonas aeruginosa LasR receptor assessed as inhibition of bioluminescence by reporter gene assay; format: functional
[7] = test system: Vibrio harveyi; test: Induction of quorum sensing regulated bioluminescence in Vibrio harveyi by luminescence assay
[8] = molecular target: T3, Transcriptional activator protein TraR (Agrobacterium tumefaciens, UniProt P33905); test: Antagonist activity at Agrobacterium tumefaciens TraR receptor in presence of 100 nM 3-oxo-C8-HSL; format: functional
T3 sequence (P33905 whole entry): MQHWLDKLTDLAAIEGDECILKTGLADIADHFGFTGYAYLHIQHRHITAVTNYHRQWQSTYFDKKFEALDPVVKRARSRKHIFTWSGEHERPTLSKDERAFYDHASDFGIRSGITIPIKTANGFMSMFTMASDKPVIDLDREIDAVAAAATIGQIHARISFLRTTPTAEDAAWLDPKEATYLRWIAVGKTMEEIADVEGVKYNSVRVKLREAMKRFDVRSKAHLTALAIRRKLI

[9] = molecular target: T4, Transcriptional activator protein LuxR (Aliivibrio fischeri, UniProt P12746); test: Antagonist activity at Vibrio fischeri luxR receptor in presence of 5 uM 3-oxo-C6-HSL; format: functional
T4 sequence (P12746 whole entry): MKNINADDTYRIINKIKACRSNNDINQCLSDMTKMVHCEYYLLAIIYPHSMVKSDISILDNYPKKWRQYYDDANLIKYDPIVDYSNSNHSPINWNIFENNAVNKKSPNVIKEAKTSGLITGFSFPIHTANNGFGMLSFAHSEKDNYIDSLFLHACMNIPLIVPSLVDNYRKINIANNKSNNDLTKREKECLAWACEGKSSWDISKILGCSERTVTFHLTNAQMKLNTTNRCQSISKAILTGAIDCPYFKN

[10] = Inhibition of quorum sensing Salmonella Typhimurium by beta-galactosidase transcription assay in presence of 50 uM DPD; set-up: species or system Salmonella enterica subsp. enterica serovar Typhimurium
[11] = Induction of quorum sensing activity in Pseudomonas aeruginosa assessed as maximal induction of LasR-dependent yellow fluorescent protein emission by luminescence assay
[12] = molecular target: T4, Transcriptional activator protein LuxR; test: Agonist activity at Vibrio fischeri luxR receptor in absence of natural autoinducer; format: functional
[13] = test system: Chromobacterium violaceum; test: In vivo inhibition of violacein production in Chromobacterium violaceum; format: functional, organism-based
[14] = test system: PC-3; test: Growth inhibition of human PC3 cells; format: functional, cell-based
[15] = Inhibition of Staphylococcus aureus Quorum sensing system AgrC-II activation after 60 to 90 minutes by beta-lactamase reporter assay; conditions: read-out: IC50
[16] = Inhibition of Staphylococcus aureus Quorum sensing system AgrC-III activation after 60 to 90 minutes by […]
[17] = Inhibition of Staphylococcus aureus Quorum sensing system AgrC-I activation after 60 to 90 minutes by beta-lactamase reporter assay; conditions: read-out: IC50
[18] = Inhibition of Staphylococcus aureus Quorum sensing system AgrC-IV activation after 60 to 90 minutes by beta-lactamase reporter assay
[19] = test system: Salmonella enterica subsp. enterica serovar Typhimurium; test: Ratio of compound IC50 to DPD IC50 for Salmonella Typhimurium quorum sensing system
[20] = test system: Aliivibrio fischeri; test: Induction of quorum sensing regulated bioluminescence in Vibrio fischeri by luminescence assay relative to natural autoinducer
[21] = Inhibition of quorum sensing in Pseudomonas aeruginosa assessed as inhibition of LasR-dependent yellow fluorescent protein emission by luminescence assay

SMILES: CCCCCCCCCCCC(=O)CC(=O)N[C@H]1CCOC1=O
EC50 [1]: 15 nM
EC50 [2]: 10 nM

SMILES: CC(C)(c1ccccc1)c1ccc(OCC(=O)NC2CCCC2)cc1
IC50 [3]: 2400 nM

SMILES: O=C(CCc1ccc(Br)cc1)N[C@H]1CCOC1=O
IC50 [4]: 340 nM

SMILES: CCCCCCCCCC(O)CC(=O)N[C@H]1CCOC1=O (some centres not stated)
EC50 [1]: 54 nM

SMILES: CC(C)OC(=O)CSc1nc2ccccc2[nH]1
IC50 [3]: 62300 nM

SMILES: CCCCC/C=C/CCC(=O)CC(=O)N[C@H]1CCOC1=O
EC50 [1]: 10 nM

SMILES: CCCCCCCCC(=O)N[C@H]1CCOC1=O
IC50 [5]: 12.4 nM

SMILES: O=C(CCCCCCCCCN=C=S)CC(=O)N[C@H]1CCOC1=O
IC50 [6]: 113000 nM

SMILES: CCCCCCCCCC(=O)CC(=O)N[C@H]1CCSC1=O
EC50 [1]: 7 nM

EC50 [7]: 30000 nM
SMILES: O=C1[C@@H](O)COC1(O)C(F)(F)F (some centres not stated)

SMILES: CCCCCCCCCC(=O)N[C@H]1CCOC1=O
IC50 [8]: 1050 nM
IC50 [4]: 250 nM
IC50 [9]: 400 nM
IC50 [5]: 39.2 nM

IC50 [6]: 100000 nM
SMILES: O=C(CCCCCCCCCNC(=O)CBr)CC(=O)N[C@H]1CCOC1=O

IC50 [10]: 20300 nM
SMILES: [N-]=[N+]=NCCCCC(=O)C(=O)[C@@H](O)CO

SMILES: CCCC(=O)CC(=O)N[C@H]1CCSC1=O
IC50 [5]: 131 nM

EC50 [11]: 14 nM
SMILES: O=C(Oc1c(Br)cc(Br)cc1CNC(=O)c1ccccc1[N+](=O)[O-])c1ccccc1Cl

EC50 [12]: 350 nM
SMILES: O=C(Cc1cccc([N+](=O)[O-])c1)N[C@H]1CCOC1=O

IC50 [10]: 24900 nM
SMILES: CCCCCCC(=O)C(=O)[C@@H](O)CO

SMILES: CCCCCCCC(=O)CC(=O)N[C@H]1CCOC1=O
EC50 [1]: 15 nM

EC50 [2]: 540 nM
SMILES: O=C(CC(=O)N[C@H]1CCOC1=O)Cc1ccccc1

SMILES: O=C(CCCCCCCCN=C=S)CC(=O)N[C@H]1CCOC1=O
IC50 [6]: 300000 nM

EC50 [7]: 3000 nM
SMILES: CC(=O)C(=O)[C@@H](O)CO

IC50 [10]: > 50000 nM
SMILES: O=C(CCc1ccccc1)C(=O)[C@@H](O)CO

IC50 [10]: > 50000 nM
SMILES: CCC(=O)C(=O)[C@@H](O)CO

SMILES: O=C(c1ccc(Cl)cc1)c1ccc(S(=O)(=O)c2ccc(Cl)cc2)cc1
IC50 [3]: 2600 nM

SMILES: CCCCCCC(=O)N[C@H]1CCOC1=O
IC50 [8]: 690 nM
IC50 [9]: 1360 nM

IC50 [13]: 723 nM
SMILES: O=C(CCCOc1ccc(Cl)cc1)NC1CCSC1=O (configuration not stated)

IC50 [13]: 295 nM
SMILES: O=C(CCCOc1ccc(Cl)cc1)NC1CCOC1=O (configuration not stated)

IC50 [14]: > 100000 nM
SMILES: O=C(CCCCCCCCCCCc1ccccc1)N[C@H]1CCOC1=O

IC50 [15]: 209 nM
IC50 [16]: 10 nM
IC50 [17]: 272 nM
IC50 [18]: 188 nM
SMILES: CC(=O)N[C@H]1CSC(=O)[C@H](Cc2ccccc2)NC(=O)[C@H](CC(C)C)NC(=O)[C@H](CO)NC(=O)[C@H](CO)NC1=O (Ac-CSSLF; thioester 1-C)

EC50 [11]: 920 nM
SMILES: Cc1cc(Br)cc(CNC(=O)c2ccccc2Cl)c1OC(=O)c1ccc(Cl)cc1Cl

SMILES: CCCCCCCCCCCC(=O)N[C@H]1CCOC1=O
EC50 [1]: 33 nM

IC50 [10]: 5300 nM
Ratio IC50 [19]: < 10
SMILES: CCCC(=O)C(=O)[C@@H](O)CO

IC50 [10]: 5040 nM
Ratio IC50 [19]: < 10
SMILES: CCCCC(=O)C(=O)[C@@H](O)CO

SMILES: O=C(Cc1ccc(I)cc1)N[C@H]1CCOC1=O
IC50 [4]: 1720 nM

IC50 [9]: 610 nM
SMILES: O=C(Cc1ccc(C(F)(F)F)cc1)N[C@H]1CCOC1=O

SMILES: CC(=O)N1CCc2ccc(S(=O)(=O)NC(CC(C)C)C(=O)NCc3ccc(Cl)cc3)cc21 (configuration not stated)
IC50 [3]: 2700 nM

EC50 [11]: 240 nM
SMILES: O=C(Oc1c(Br)cc(Br)cc1CNC(=O)c1ccccc1Cl)c1ccc(F)cc1

SMILES: CCCCCC(=O)CC(=O)N[C@H]1CCOC1=O
EC50 [1]: 150 nM
Activity [20]: 50%

Activity [20]: 10%
SMILES: CC(=O)CCCC(=O)N[C@H]1CCOC1=O

IC50 [13]: 1200 nM
SMILES: Cc1cc(Cl)ccc1OCCCC(=O)NC1CCSC1=O (configuration not stated)

SMILES: COc1ccc(CNC(=O)C(NS(=O)(=O)c2ccc3nc(C)sc3c2)C(C)C)cc1 (configuration not stated)
IC50 [3]: 2900 nM

IC50 [21]: 30 nM
SMILES: CCCCCCCCCCCCn1nnc(CC(=O)O)n1

IC50 [21]: 10000 nM
SMILES: CCCCCCCCCNC(=O)CC(=O)c1ccccc1

IC50 [9]: 770 nM
SMILES: CCCCCCCC(=O)N[C@H]1CCOC1=O

IC50 [21]: 50000 nM
SMILES: O=C(Nc1ccccc1NC(=O)c1cccc(Cl)c1)c1cccc(Cl)c1

SMILES: O=C(CCCCCCCCCCN=C=S)CC(=O)N[C@H]1CCOC1=O
IC50 [6]: 45200 nM
